Structures can show the parent of a compound that is named as a salt. Where two headings read alike, the source gives them in different places.
How the values were obtained:
[1] = target: human recombinant 5-HT1A receptor (Homo sapiens (Human), UniProt P08908); assay: 5-HT1A receptor agonism activity test (inhibition of cAMP production, LANCE cAMP 384 Kit); type: cell-based; conditions: HEK293 cells expressing human recombinant 5-HT1A receptor; test concentration 0.1 nM-10000 nM; read-out: 5-HT1A receptor agonism (EC50, mol/L)
Description: Pharmacological Test 1) 5-HT1A Receptor Agonism Activity Test

[2] = target: human recombinant 5-HT2A receptor (Homo sapiens (Human), UniProt P28223); assay: 5-HT2A receptor antagonism activity test (FLIPR Calcium 5 Assay Kit); conditions: read-out: 5-HT2A receptor antagonism (IC50, mol/L)
[3] = target: human recombinant D2 receptor (Homo sapiens (Human), UniProt P14416); assay: D2 receptor antagonism activity test (inhibition of dopamine-induced decrease of cAMP production, LANCE cAMP 384 Kit); conditions: read-out: D2 receptor antagonism (IC50, mol/L), HEK293 cells expressing human recombinant D2 receptor, 0.1 nM-10000 nM
[4] = CHO-K1 cells expressing human recombinant 5-HT2A receptor, α-methyl-5-hydroxytryptamine 300 nM, 0.1 nM-10000 nM

Chain of human recombinant 5-HT2A receptor (P28223 whole entry): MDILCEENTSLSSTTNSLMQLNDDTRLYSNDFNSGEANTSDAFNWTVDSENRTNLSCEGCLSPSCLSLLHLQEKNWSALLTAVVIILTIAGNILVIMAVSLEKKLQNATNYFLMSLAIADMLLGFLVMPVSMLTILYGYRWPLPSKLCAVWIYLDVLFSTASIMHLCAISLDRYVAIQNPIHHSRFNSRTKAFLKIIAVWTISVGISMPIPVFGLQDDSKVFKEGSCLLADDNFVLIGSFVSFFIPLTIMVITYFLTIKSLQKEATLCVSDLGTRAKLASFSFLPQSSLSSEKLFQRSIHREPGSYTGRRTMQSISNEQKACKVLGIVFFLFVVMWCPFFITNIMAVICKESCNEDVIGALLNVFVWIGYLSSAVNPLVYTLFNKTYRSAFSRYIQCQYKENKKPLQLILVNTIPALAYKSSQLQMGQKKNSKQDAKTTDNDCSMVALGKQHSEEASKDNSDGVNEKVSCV
Chain of human recombinant D2 receptor (P14416 whole entry): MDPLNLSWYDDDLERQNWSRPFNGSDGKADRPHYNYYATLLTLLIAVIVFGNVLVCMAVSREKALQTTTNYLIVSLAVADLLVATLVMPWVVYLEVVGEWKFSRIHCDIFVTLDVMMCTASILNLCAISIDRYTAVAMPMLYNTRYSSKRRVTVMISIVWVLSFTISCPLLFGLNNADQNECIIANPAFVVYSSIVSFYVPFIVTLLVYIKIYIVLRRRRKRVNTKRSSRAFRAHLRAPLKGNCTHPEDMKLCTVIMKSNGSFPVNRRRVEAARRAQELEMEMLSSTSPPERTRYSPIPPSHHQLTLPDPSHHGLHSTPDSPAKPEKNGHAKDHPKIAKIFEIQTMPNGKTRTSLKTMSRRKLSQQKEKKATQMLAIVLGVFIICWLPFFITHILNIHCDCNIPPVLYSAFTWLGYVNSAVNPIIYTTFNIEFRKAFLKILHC
Chain of human recombinant 5-HT1A receptor (P08908 whole entry): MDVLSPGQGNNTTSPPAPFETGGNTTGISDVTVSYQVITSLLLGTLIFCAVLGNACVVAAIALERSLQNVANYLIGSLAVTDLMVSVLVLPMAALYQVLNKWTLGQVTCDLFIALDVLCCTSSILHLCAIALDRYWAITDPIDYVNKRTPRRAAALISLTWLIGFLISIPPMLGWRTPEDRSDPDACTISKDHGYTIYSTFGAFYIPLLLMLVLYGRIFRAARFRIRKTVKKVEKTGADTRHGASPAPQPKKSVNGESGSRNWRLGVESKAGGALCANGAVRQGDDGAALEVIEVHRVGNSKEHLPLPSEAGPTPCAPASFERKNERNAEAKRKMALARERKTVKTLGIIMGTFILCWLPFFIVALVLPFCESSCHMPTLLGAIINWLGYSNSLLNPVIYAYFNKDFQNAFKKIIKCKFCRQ

Structure (SMILES)	EC50 [1]	IC50 [2, 4]	IC50 [3]	IC50 [2]
O=c1ccc2ccc(CCN3CCN(c4cncc5sccc45)CC3)cc2[nH]1 [Compound of example 43, 7-(2-(4-(thieno[2,3-c]pyridin-4-yl)piperazin-1-yl)ethyl)quinolin-2(1H)-one]	1.23 nM	286 nM	241 nM	
O=c1[nH]c(CCN2CCN(c3cccc4sccc34)CC2)nc2ccccc12 [Compound of example 35, 2-(2-(4-(benzo[b]thiophen-4-yl)piperazin-1-yl)ethyl)quinazolin-4(3H)-one]	41.9 nM	21.5 nM	216 nM	
CC(=O)Nc1nc2cc(CCN3CCN(c4cccc5sccc45)CC3)ccc2s1 [Compound of example 118, N-(5-(2-(4-(benzo[b]thiophen-4-yl)piperazin-1-yl)ethyl)benzo[d]thiazol-2-yl)acetamide]	0.602 nM	75 nM	119 nM	
Nc1nc2cc(CCN3CCN(c4cccc5sccc45)CC3)ccc2s1 [Compound of example 116, 5-(2-(4-(benzo[b]thiophen-4-yl)piperazin-1-yl)ethyl)benzo[d]thiazol-2-amine]			5.97 nM	
c1cc(N2CCN(CCCCc3nnnn3C3CCCCC3)CC2)c2ccsc2c1 [Compound of example 138, 1-(benzo[b]thiophen-4-yl)-4-(4-(1-cyclohexyl-1H-tetrazol-5-yl)butyl)piperazine hydrochloride]			9.4 nM	
O=C1Cc2cc(CCN3CCC(c4cccc5sccc45)CC3)c(Cl)cc2N1 [Compound of example 37, 5-(2-(4-(benzo[b]thiophen-4-yl)piperidin-1-yl)ethyl)-6-chloroindolin-2-one]	3.11 nM	28.1 nM	51.9 nM	
N#Cc1ccc2[nH]cc(CCCCN3CCN(c4cccc5sccc45)CC3)c2c1 [Compound of example 70, 3-(4-(4-(benzo[b]thiophen-4-yl)piperazin-1-yl)butyl)-1H-indole-5-carbonitrile]	9.7 nM	332 nM	79.7 nM	
Cc1nc2ccc(CCCCCN3CCN(c4cccc5sccc45)CC3)cc2c(=O)[nH]1 [Compound of example 24, 6-(5-(4-(benzo[b]thiophen-4-yl)piperazin-1-yl)pentyl)-2-methylquinazolin-4(3H)-one]	25.9 nM	781 nM	50.7 nM	
COc1ccc2[nH]cc(CCCCN3CCN(c4cccc5sccc45)CC3)c2c1 [Compound of example 107, 3-(4-(4-(benzo[b]thiophen-4-yl)piperazin-1-yl)butyl)-5-methoxy-1H-indole]	7.95 nM	393 nM	8.43 nM	
O=c1ccc2ccc(CCCCCN3CCN(c4cccc5sccc45)CC3)cc2[nH]1 [Compound of example 11, 7-(5-(4-(benzo[b]thiophen-4-yl)piperazin-1-yl)pentyl)quinolin-2(1H)-one]	1.95 nM	209 nM		
O=C1COc2cc(F)c(CCN3CCN(c4cccc5sccc45)CC3)cc2N1 [Compound of example 66, 6-(2-(4-(benzo[b]thiophen-4-yl)piperazin-1-yl)ethyl)-7-fluoro-2H-benzo[b][1,4]oxazin-3(4H)-one]	1.29 nM	81.5 nM	61.7 nM	
COc1ccc2[nH]cc(CCCN3CCN(c4cccc5sccc45)CC3)c2c1 [Compound of example 106, 3-(3-(4-(benzo[b]thiophen-4-yl)piperazin-1-yl)propyl)-5-methoxy-1H-indole]	10.4 nM	662 nM	543 nM	
O=c1ccc2ccc(CCN3CCN(c4cccc5sccc45)CC3)cc2[nH]1 [Compound of example 9, 7-(2-(4-(benzo[b]thiophen-4-yl)piperazin-1-yl)ethyl)quinolin-2(1H)-one]	0.972 nM		7.06 nM	95.6 nM
COc1ccc2[nH]cc(CCN3CCN(c4cccc5sccc45)CC3)c2c1 [Compound of example 105, 3-(2-(4-(benzo[b]thiophen-4-yl)piperazin-1-yl)ethyl)-5-methoxy-1H-indole]				25.5 nM
O=C1CCc2ccc(C(O)CCCCN3CCN(c4cccc5sccc45)CC3)cc2N1 (centres unmarked) [Compound of example 150, 7-(5-(4-(benzo[b]thiophen-4-yl)piperazin-1-yl)-1-hydroxypentyl)-3,4-dihydroquinolin-2(1H)-one]	15.7 nM	108 nM	4.54 nM	
O=C1N[C@@H]2[C@@H](CS[C@@H]2CCCCCN2CCN(c3cccc4sccc34)CC2)N1 [Compound of example 134, (3aR,4R,6aS)-4-(5-(4-(benzo[b]thiophen-4-yl)piperazin-1-yl)pentyl)tetrahydro-1H-thieno[3,4-d]imidazol-2(3H)-one]	0.75 nM	16.7 nM	37.9 nM	
N#Cc1ccc2[nH]cc(CCCN3CCN(c4cccc5sccc45)CC3)c2c1 [Compound of example 108, 3-(3-(4-(benzo[b]thiophen-4-yl)piperazin-1-yl)propyl)-1H-indole-5-carbonitrile]	44.9 nM	819 nM	21.7 nM	
O=C1COc2c(F)cc(CCN3CCN(c4cccc5sccc45)CC3)cc2N1 [Compound of example 139, 6-(2-(4-(benzo[b]thiophen-4-yl)piperazin-1-yl)ethyl)-8-fluoro-2H-benzo[b][1,4]oxazin-3(4H)-one]	0.766 nM	104 nM	79.6 nM	
COC(CN1CCN(c2cccc3sccc23)CC1)c1cccc2c1OCC(=O)N2 (centres unmarked) [Compound of example 144, 8-(2-(4-(benzo[b]thiophen-4-yl)piperazin-1-yl)-1-methoxyethyl)-2H-benzo[b][1,4]oxazin-3(4H)-one]	8.93 nM		65.8 nM	17 nM
CC(=O)Nc1nc2c(CCN3CCN(c4cccc5sccc45)CC3)cccc2s1 [Compound of example 121, N-(4-(2-(4-(benzo[b]thiophen-4-yl)piperazin-1-yl)ethyl)benzo[d]thiazol-2-yl)acetamide]	32 nM	41 nM	216 nM	
Nc1nc2c(CCN3CCN(c4cccc5sccc45)CC3)cccc2s1 [Compound of example 120, 4-(2-(4-(benzo[b]thiophen-4-yl)piperazin-1-yl)ethyl)benzo[d]thiazol-2-amine]			229 nM	
N#Cc1ccc2[nH]cc(CCN3CCN(c4cccc5sccc45)CC3)c2c1 [Compound of example 109, 3-(2-(4-(benzo[b]thiophen-4-yl)piperazin-1-yl)ethyl)-1H-indole-5-carbonitrile]		200 nM	243 nM	
O=c1[nH]cnc2ccc(CCCCCN3CCN(c4cccc5sccc45)CC3)cc12 [Compound of example 34, 6-(5-(4-(benzo[b]thiophen-4-yl)piperazin-1-yl)pentyl)quinazolin-4(3H)-one hydrochloride]	54 nM		324 nM	
Cc1nc2c(OCc3ccccc3)cccn2c(=O)c1CCN1CCN(c2cccc3sccc23)CC1 [Compound of example 17, 3-(2-(4-(benzo[b]thiophen-4-yl)piperazin-1-yl)ethyl)-9-(benzyloxy)-2-methyl-4H-pyrido[1,2-a]pyrimidin-4-one hydrochloride]		350 nM		

— patent publication US10174011B2, “Heterocyclic compounds, process for preparation of the same and use thereof” (SHANGHAI INSTITUTE OF MATERIA MEDICA, CHINESE ACADEMY OF …, priority 2014, dated 2019)
